According to PMC7291858, “An Enhanced Variant Designed From DLP4 Cationic Peptide Against Staphylococcus aureus CVCC 546” (Frontiers in Microbiology, 2020):
Peptide text beside a SMILES is read from it.

These molecules were tested on S. aureus ATCC 43300. Conditions: microtiter, serial 2-fold dilutions, 37°C, 16∼20 h, triplicate; – = no activity.
Format: cell-based, Staphylococcus aureus
Procedure: The minimal inhibitory concentration (MIC) was evaluated by a microtiter plate assay ([Wiegand et al., 2008]). Serial 2-fold dilutions of test peptides were placed into a 96-well plate containing identical bacterial inoculum and incubated at 37°C for 16∼20 h. Vancomycin was used as antibiotic control. The MIC value was defined as the lowest peptide concentration where no visible growth occurred. All tests were made in triplicate.

Structure (SMILES)	A1 (MIC against S. aureus ATCC 43300) [µg/mL]
CC[C@H](C)[C@@H]1NC(=O)[C@@H]2CSSC[C@@H](C(=O)N[C@@H](CCCNC(=N)N)C(=O)N[C@@H](CCCCN)C(=O)O)NC(=O)[C@H](CC(N)=O)NC(=O)[C@@H]3CSSC[C@H](NC(=O)[C@H](C)NC(=O)[C@H](C)NC(=O)[C@H](Cc4c[nH]cn4)NC(=O)CNC(=O)[C@H](C(C)C)NC(=O)[C@H](CCCCN)NC(=O)[C@H](Cc4ccccc4)NC(=O)[C@H](CCCCN)NC(=O)[C@H](CO)NC(=O)[C@H](CC(C)C)NC(=O)[C@H](CC(C)C)NC(=O)[C@H](CC(=O)O)NC(=O)[C@@H](NC(=O)[C@@H](NC(=O)[C@H](C)N)[C@@H](C)O)CSSC[C@H](NC(=O)[C@H](Cc4c[nH]c5ccccc45)NC(=O)CNC(=O)CNC(=O)[C@H](CCCNC(=N)N)NC(=O)[C@H](CCCCN)NC(=O)CNC(=O)[C@H](CCCNC(=N)N)NC(=O)[C@H](C)NC1=O)C(=O)N[C@@H](CC(=O)O)C(=O)N[C@@H](CCCCN)C(=O)N[C@@H](CCCNC(=N)N)C(=O)N[C@@H](C)C(=O)N[C@@H](C(C)C)C(=O)N3)C(=O)N[C@@H](C)C(=O)N[C@@H](C)C(=O)N[C@@H](Cc1c[nH]cn1)C(=O)N2 [ID8] (HELM PEPTIDE1{A.T.C.D.L.L.S.K.F.K.V.G.H.A.A.C.A.A.H.C.I.A.R.G.K.R.G.G.W.C.D.K.R.A.V.C.N.C.R.K}$PEPTIDE1,PEPTIDE1,3:R3-30:R3|PEPTIDE1,PEPTIDE1,16:R3-36:R3|PEPTIDE1,PEPTIDE1,20:R3-38:R3$$$V2.0; N-terminus and C-terminus assumed; bridges inferred)	32
CC[C@H](C)[C@@H]1NC(=O)[C@@H]2CSSC[C@@H](C(=O)N[C@@H](CCCNC(=N)N)C(=O)N[C@@H](CCCCN)C(=O)O)NC(=O)[C@H](CC(N)=O)NC(=O)[C@@H]3CSSC[C@H](NC(=O)[C@H](C)NC(=O)[C@H](C)NC(=O)[C@H](Cc4c[nH]cn4)NC(=O)CNC(=O)[C@H](C(C)C)NC(=O)[C@H](CCCCN)NC(=O)[C@H](Cc4ccccc4)NC(=O)[C@@H]4CCCN4C(=O)[C@H](CO)NC(=O)[C@H](CC(C)C)NC(=O)[C@H](CC(C)C)NC(=O)[C@H](CC(=O)O)NC(=O)[C@@H](NC(=O)[C@@H](NC(=O)[C@H](C)N)[C@@H](C)O)CSSC[C@H](NC(=O)[C@H](Cc4c[nH]c5ccccc45)NC(=O)CNC(=O)CNC(=O)[C@H](CCCNC(=N)N)NC(=O)[C@H](CC(N)=O)NC(=O)CNC(=O)[C@H](CCCNC(=N)N)NC(=O)[C@H](C)NC1=O)C(=O)N[C@@H](CC(=O)O)C(=O)NCC(=O)N[C@@H](CCCNC(=N)N)C(=O)N[C@@H](C)C(=O)N[C@@H](C(C)C)C(=O)N3)C(=O)N[C@@H](C)C(=O)N[C@@H](C)C(=O)N[C@@H](Cc1c[nH]cn1)C(=O)N2 [ID18] (HELM PEPTIDE1{A.T.C.D.L.L.S.P.F.K.V.G.H.A.A.C.A.A.H.C.I.A.R.G.N.R.G.G.W.C.D.G.R.A.V.C.N.C.R.K}$PEPTIDE1,PEPTIDE1,3:R3-30:R3|PEPTIDE1,PEPTIDE1,16:R3-36:R3|PEPTIDE1,PEPTIDE1,20:R3-38:R3$$$V2.0; N-terminus and C-terminus assumed; bridges inferred)	16
CC[C@H](C)[C@@H]1NC(=O)[C@@H]2CSSC[C@@H](C(=O)N[C@@H](CCCNC(=N)N)C(=O)N[C@@H](CCCCN)C(=O)O)NC(=O)[C@H](CC(N)=O)NC(=O)[C@@H]3CSSC[C@H](NC(=O)[C@H](C)NC(=O)[C@H](C)NC(=O)[C@H](Cc4c[nH]cn4)NC(=O)CNC(=O)[C@H](C(C)C)NC(=O)[C@H](CCCCN)NC(=O)[C@H](Cc4ccccc4)NC(=O)[C@@H]4CCCN4C(=O)[C@H](CO)NC(=O)[C@H](CC(C)C)NC(=O)[C@H](CC(C)C)NC(=O)[C@H](CC(=O)O)NC(=O)[C@@H](NC(=O)[C@@H](NC(=O)[C@H](C)N)[C@@H](C)O)CSSC[C@H](NC(=O)[C@H](Cc4c[nH]c5ccccc45)NC(=O)CNC(=O)CNC(=O)[C@H](CCCNC(=N)N)NC(=O)[C@H](CCCCN)NC(=O)CNC(=O)[C@H](CCCNC(=N)N)NC(=O)[C@H](C)NC1=O)C(=O)N[C@@H](CC(N)=O)C(=O)N[C@@H](CCCCN)C(=O)N[C@@H](CCCNC(=N)N)C(=O)N[C@@H](C)C(=O)N[C@@H](C(C)C)C(=O)N3)C(=O)N[C@@H](C)C(=O)N[C@@H](C)C(=O)N[C@@H](Cc1c[nH]cn1)C(=O)N2 [ID10] (HELM PEPTIDE1{A.T.C.D.L.L.S.P.F.K.V.G.H.A.A.C.A.A.H.C.I.A.R.G.K.R.G.G.W.C.N.K.R.A.V.C.N.C.R.K}$PEPTIDE1,PEPTIDE1,3:R3-30:R3|PEPTIDE1,PEPTIDE1,16:R3-36:R3|PEPTIDE1,PEPTIDE1,20:R3-38:R3$$$V2.0; N-terminus and C-terminus assumed; bridges inferred)	16
CC[C@H](C)[C@@H]1NC(=O)[C@@H]2CSSC[C@@H](C(=O)N[C@@H](CCCNC(=N)N)C(=O)N[C@@H](CCCCN)C(=O)O)NC(=O)[C@H](CC(N)=O)NC(=O)[C@@H]3CSSC[C@H](NC(=O)[C@H](C)NC(=O)[C@H](C)NC(=O)[C@H](Cc4c[nH]cn4)NC(=O)[C@H](CCCCN)NC(=O)[C@H](C(C)C)NC(=O)[C@H](CCCCN)NC(=O)[C@H](Cc4ccccc4)NC(=O)[C@@H]4CCCN4C(=O)[C@H](CO)NC(=O)[C@H](CC(C)C)NC(=O)[C@H](CC(C)C)NC(=O)[C@H](CC(=O)O)NC(=O)[C@@H](NC(=O)[C@@H](NC(=O)[C@H](C)N)[C@@H](C)O)CSSC[C@H](NC(=O)[C@H](Cc4c[nH]c5ccccc45)NC(=O)CNC(=O)CNC(=O)[C@H](CCCNC(=N)N)NC(=O)[C@H](CCCCN)NC(=O)CNC(=O)[C@H](CCCNC(=N)N)NC(=O)[C@H](C)NC1=O)C(=O)N[C@@H](CC(=O)O)C(=O)N[C@@H](CCCCN)C(=O)N[C@@H](CCCNC(=N)N)C(=O)N[C@@H](C)C(=O)N[C@@H](C(C)C)C(=O)N3)C(=O)N[C@@H](C)C(=O)N[C@@H](C)C(=O)N[C@@H](Cc1c[nH]cn1)C(=O)N2 [ID9] (HELM PEPTIDE1{A.T.C.D.L.L.S.P.F.K.V.K.H.A.A.C.A.A.H.C.I.A.R.G.K.R.G.G.W.C.D.K.R.A.V.C.N.C.R.K}$PEPTIDE1,PEPTIDE1,3:R3-30:R3|PEPTIDE1,PEPTIDE1,16:R3-36:R3|PEPTIDE1,PEPTIDE1,20:R3-38:R3$$$V2.0; N-terminus and C-terminus assumed; bridges inferred)	16
CC[C@H](C)[C@@H]1NC(=O)[C@@H]2CSSC[C@@H](C(=O)N[C@@H](CCCNC(=N)N)C(=O)N[C@@H](CCCCN)C(=O)O)NC(=O)[C@H](CC(N)=O)NC(=O)[C@@H]3CSSC[C@H](NC(=O)[C@H](C)NC(=O)[C@H](C)NC(=O)[C@H](Cc4c[nH]cn4)NC(=O)CNC(=O)[C@H](C(C)C)NC(=O)[C@H](CCCCN)NC(=O)[C@H](Cc4ccccc4)NC(=O)[C@@H]4CCCN4C(=O)[C@H](CO)NC(=O)[C@H](CC(C)C)NC(=O)[C@H]([C@@H](C)CC)NC(=O)[C@H](CC(=O)O)NC(=O)[C@@H](NC(=O)[C@@H](NC(=O)[C@H](C)N)[C@@H](C)O)CSSC[C@H](NC(=O)[C@H](Cc4c[nH]c5ccccc45)NC(=O)CNC(=O)CNC(=O)[C@H](CCCNC(=N)N)NC(=O)[C@H](CCCCN)NC(=O)CNC(=O)[C@H](CCCNC(=N)N)NC(=O)[C@H](C)NC1=O)C(=O)N[C@@H](CC(=O)O)C(=O)N[C@@H](CCCCN)C(=O)N[C@@H](CCCNC(=N)N)C(=O)N[C@@H](C)C(=O)N[C@@H](C(C)C)C(=O)N3)C(=O)N[C@@H](C)C(=O)N[C@@H](C)C(=O)N[C@@H](Cc1c[nH]cn1)C(=O)N2 [ID4] (HELM PEPTIDE1{A.T.C.D.I.L.S.P.F.K.V.G.H.A.A.C.A.A.H.C.I.A.R.G.K.R.G.G.W.C.D.K.R.A.V.C.N.C.R.K}$PEPTIDE1,PEPTIDE1,3:R3-30:R3|PEPTIDE1,PEPTIDE1,16:R3-36:R3|PEPTIDE1,PEPTIDE1,20:R3-38:R3$$$V2.0; N-terminus and C-terminus assumed; bridges inferred)	32
CC[C@H](C)[C@@H]1NC(=O)[C@@H]2CSSC[C@@H](C(=O)N[C@@H](CCCNC(=N)N)C(=O)N[C@@H](CCCCN)C(=O)O)NC(=O)[C@H](CC(N)=O)NC(=O)[C@@H]3CSSC[C@H](NC(=O)[C@H](C)NC(=O)[C@H](C)NC(=O)[C@H](Cc4c[nH]cn4)NC(=O)CNC(=O)[C@H](C(C)C)NC(=O)[C@H](CCCCN)NC(=O)[C@H](Cc4ccccc4)NC(=O)[C@@H]4CCCN4C(=O)[C@H](CO)NC(=O)[C@H]([C@@H](C)CC)NC(=O)[C@H](CC(C)C)NC(=O)[C@H](CC(=O)O)NC(=O)[C@@H](NC(=O)[C@@H](NC(=O)[C@H](C)N)[C@@H](C)O)CSSC[C@H](NC(=O)[C@H](Cc4c[nH]c5ccccc45)NC(=O)CNC(=O)CNC(=O)[C@H](CCCNC(=N)N)NC(=O)[C@H](CCCCN)NC(=O)CNC(=O)[C@H](CCCNC(=N)N)NC(=O)[C@H](C)NC1=O)C(=O)N[C@@H](CC(=O)O)C(=O)N[C@@H](CCCCN)C(=O)N[C@@H](CCCNC(=N)N)C(=O)N[C@@H](C)C(=O)N[C@@H](C(C)C)C(=O)N3)C(=O)N[C@@H](C)C(=O)N[C@@H](C)C(=O)N[C@@H](Cc1c[nH]cn1)C(=O)N2 [ID5] (HELM PEPTIDE1{A.T.C.D.L.I.S.P.F.K.V.G.H.A.A.C.A.A.H.C.I.A.R.G.K.R.G.G.W.C.D.K.R.A.V.C.N.C.R.K}$PEPTIDE1,PEPTIDE1,3:R3-30:R3|PEPTIDE1,PEPTIDE1,16:R3-36:R3|PEPTIDE1,PEPTIDE1,20:R3-38:R3$$$V2.0; N-terminus and C-terminus assumed; bridges inferred)	16
